Test results reported in patent publication US11820766B2, “Monoacylglycerol lipase modulators” (Janssen Pharmaceutica NV, priority 2018, dated 2023).

What follows are molecules tested against T1, human MGL from HeLa cells (Homo sapiens, UniProt Q99685) (assay: In vitro MGL activity assay: [glycerol-1,3-3H]-oleyl glycerol cleavage by MGL from HeLa cells). Details: 300 nM [Glycerol-1,3-3H]-oleyl glycerol, one hour.
T1 construct: combining endogenously expressed MGL from HeLa cells with test compounds; endogenous in cells; host or cells: HeLa cells / cell homogenates
T1 sequence (Q99685 1-303): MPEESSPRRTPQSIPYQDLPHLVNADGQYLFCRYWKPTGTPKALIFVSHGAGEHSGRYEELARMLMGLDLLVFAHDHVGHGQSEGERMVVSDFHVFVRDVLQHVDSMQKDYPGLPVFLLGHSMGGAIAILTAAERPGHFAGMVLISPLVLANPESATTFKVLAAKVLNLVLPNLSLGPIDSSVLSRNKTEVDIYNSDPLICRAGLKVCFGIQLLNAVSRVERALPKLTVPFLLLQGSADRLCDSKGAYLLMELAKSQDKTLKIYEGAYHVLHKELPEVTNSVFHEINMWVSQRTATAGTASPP
Format: biochemical
Excerpt: MGL is the predominant hydrolase in HeLa cells/cell homogenates.

Compound | IC50 [nM]
C[C@H]1c2nn(C)c(-c3cc(F)c(F)c(F)c3)c2CCN1C(=O)c1ccc2c(c1)COCC2 [Example 577, [(7S)-2,7-Dimethyl-3-(3,4,5-trifluorophenyl)-5,7-dihydro-4H-pyrazolo[3,4-c]pyridin-6-yl]-isochroman-7-yl-methanone] | 32.2
C[C@H]1c2nn(C)c(-c3cc(F)c(F)c(F)c3)c2CCN1C(=O)c1cnn(C)c1[C@H]1CC1F (mixture of isomers) [Example 339, ((S)-2,7-Dimethyl-3-(3,4,5-trifluorophenyl)-2,4,5,7-tetrahydro-6H-pyrazolo[3,4-c]pyridin-6-yl)(cis-5-(2-fluorocyclopropyl)-1-methyl-1H-pyrazol-4-yl)methanone] | 3.01
Cc1nc(C(=O)N2CCc3c(nn(C)c3-c3cc(F)c(F)c(F)c3)[C@@H]2C)c2cnccn12 [Example 462, [(7S)-2,7-Dimethyl-3-(3,4,5-trifluorophenyl)-5,7-dihydro-4H-pyrazolo[3,4-c]pyridin-6-yl]-(3-methylimidazo[1,5-a]pyrazin-1-yl) methanone] | 35.4
C[C@H]1c2nn(C)c(-c3ccnc(C(F)(F)F)c3)c2CCN1C(=O)c1ccc2ncccc2c1 [Example 523, [(7S)-2,7-Dimethyl-3-[2-(trifluoromethyl)-4-pyridyl]-5,7-dihydro-4H-pyrazolo[3,4-c]pyridin-6-yl]-(6-quinolyl)methanone] | 417
Cc1cc(F)cc(-c2c3c(nn2C)[C@H](C)N(C(=O)c2ccc4ncccc4c2)CC3)c1 [Example 511, [(7S)-3-(3-Fluoro-5-methyl-phenyl)-2,7-dimethyl-5,7-dihydro-4H-pyrazolo[3,4-c]pyridin-6-yl]-(6-quinolyl)methanone] | 6.58
C[C@H]1c2nn(C)c(-c3cc(F)c(F)c(F)c3)c2CCN1C(=O)c1cccc2c1CNCC2 [Example 575, [(7S)-2,7-Dimethyl-3-(3,4,5-trifluorophenyl)-5,7-dihydro-4H-pyrazolo[3,4-c]pyridin-6-yl]-(1,2,3,4-tetrahydroisoquinolin-8-yl)methanone] | 72.7
C[C@H]1c2nn(C)c(-c3ccc(Cl)c(F)c3)c2CCN1C(=O)c1ccc2ncccc2c1 [Example 504, [(7S)-3-(4-Chloro-3-fluoro-phenyl)-2,7-dimethyl-5,7-dihydro-4H-pyrazolo[3,4-c]pyridin-6-yl]-(6-quinolyl)methanone] | 25.3
COc1ncc(-c2c3c(nn2C)[C@H](C)N(C(=O)c2ccc4ncccc4c2)CC3)cc1C(F)(F)F [Example 530, [(7S)-3-[6-Methoxy-5-(trifluoromethyl)-3-pyridyl]-2,7-dimethyl-5,7-dihydro-4H-pyrazolo[3,4-c]pyridin-6-yl]-(6-quinolyl)methanone] | 130
C[C@H]1c2nn(C)c(-c3cc(F)c(F)c(F)c3)c2CCN1C(=O)c1cnc2c(c1)OCCN2C [Example 572, [(7S)-2,7-Dimethyl-3-(3,4,5-trifluorophenyl)-5,7-dihydro-4H-pyrazolo[3,4-c]pyridin-6-yl]-(4-methyl-2,3-dihydropyrido[3,2-b][1,4]oxazin-7-yl)methanone] | 51.9
Cc1cccc2c(C(=O)N3CCc4c(nn(C)c4-c4cc(F)c(F)c(F)c4)[C@@H]3C)c(C3CC3)nn12 [Example 385, (2-Cyclopropyl-7-methyl-pyrazolo[1,5-a]pyridin-3-yl)-[(7S)-2,7-dimethyl-3-(3,4,5-trifluorophenyl)-5,7-dihydro-4H-pyrazolo[3,4-c]pyridin-6-yl]methanone] | 120
C[C@H]1c2nn(C)c(-c3ccccc3C(F)(F)F)c2CCN1C(=O)c1ccc2ncccc2c1 [Example 493, [(7S)-2,7-Dimethyl-3-[2-(trifluoromethyl)phenyl]-5,7-dihydro-4H-pyrazolo[3,4-c]pyridin-6-yl]-(6-quinolyl)methanone] | 2360
C[C@H]1c2nn(C)c(-c3cc(F)c(F)c(F)c3)c2CCN1C(=O)c1ccc2ncncc2c1 [Example 479, [(7S)-2,7-Dimethyl-3-(3,4,5-trifluorophenyl)-5,7-dihydro-4H-pyrazolo[3,4-c]pyridin-6-yl]-quinazolin-6-yl-methanone] | 189
C[C@H]1c2nn(C)c(-c3cc(F)c(F)c(F)c3)c2CCN1C(=O)c1cnn2cc(F)ccc12 [Example 384, [(7S)-2,7-Dimethyl-3-(3,4,5-trifluorophenyl)-5,7-dihydro-4H-pyrazolo[3,4-c]pyridin-6-yl]-(6-fluoropyrazolo[1,5-a]pyridin-3-yl)methanone] | 44

Same assay, conditions: 300 nM [Glycerol-1,3-3H]-oleyl glycerol, one hour incubation

Compound | IC50 [nM]
COc1ccc(C(=O)N2CCc3c(nn(C)c3-c3cc(F)c(F)c(F)c3)[C@@H]2C)cc1 [Example 261, [(7S)-2,7-Dimethyl-3-(3,4,5-trifluorophenyl)-5,7-dihydro-4H-pyrazolo[3,4-c]pyridin-6-yl]-(4-methoxyphenyl)methanone] | 29.4
C[C@@H]1c2nn(C)c(-c3cccc(Cl)c3)c2CCN1C(=O)c1ccc2nccnc2c1 (single isomer, unassigned) [Example 133] | > 10000
Cc1cc(C(=O)N2CCc3c(nn(C)c3-c3cc(F)c(F)c(F)c3)[C@@H]2C)cc(-n2cnnc2)c1 [Example 293, [(7S)-2,7-Dimethyl-3-(3,4,5-trifluorophenyl)-5,7-dihydro-4H-pyrazolo[3,4-c]pyridin-6-yl]-[3-methyl-5-(1,2,4-triazol-4-yl)phenyl]methanone] | 63
C[C@H]1c2nn(C)c(-c3cc(F)c(F)c(F)c3)c2CCN1C(=O)c1cc(F)ccc1-n1cccn1 [Example 193, (S)-(2,7-Dimethyl-3-(3,4,5-trifluorophenyl)-2,4,5,7-tetrahydro-6H-pyrazolo[3,4-c]pyridin-6-yl)(5-fluoro-2-(1H-pyrazol-1-yl)phenyl)methanone] | 75.5
Cn1nc2c(c1-c1ccccc1)CCN(C(=O)c1ccc3[nH]ccc3c1)C2 [Example 43, (1H-Indol-5-yl)(2-methyl-3-phenyl-2,4,5,7-tetrahydro-6H-pyrazolo[3,4-c]pyridin-6-yl)methanone] | 64.7
Cn1nc2c(c1-c1ccccc1)CCN(C(=O)c1ccc3scnc3c1)C2 [Example 60, Benzo[d]thiazol-5-yl(2-methyl-3-phenyl-2,4,5,7-tetrahydro-6H-pyrazolo[3,4-c]pyridin-6-yl)methanone] | 550
Cn1nc2c(c1-c1ccccc1)CCN(C(=O)c1cn(C)c3ccccc13)C2 [Example 52, (1-Methyl-1H-indol-3-yl)(2-methyl-3-phenyl-2,4,5,7-tetrahydro-6H-pyrazolo[3,4-c]pyridin-6-yl)methanone] | 138
C[C@H]1c2nn(C)c(-c3cc(F)c(F)c(F)c3)c2CCN1C(=O)c1nn(C)c2ncccc12 [Example 230, (S)-(2,7-Dimethyl-3-(3,4,5-trifluorophenyl)-2,4,5,7-tetrahydro-6H-pyrazolo[3,4-c]pyridin-6-yl)(1-methyl-1H-pyrazolo[3,4-b]pyridin-3-yl)methanone] | 23
COc1cccc(C(=O)N2CCc3c(nn(-c4ccccc4)c3-c3ccccc3)[C@@H]2C)c1 [Example 257, (3-Methoxyphenyl)-[(7S)-7-methyl-2,3-diphenyl-5,7-dihydro-4H-pyrazolo[3,4-c]pyridin-6-yl]methanone] | 101
C[C@H]1c2nn(C)c(-c3cncc(C(F)(F)F)c3)c2CCN1C(=O)c1ccc2nccnc2c1 [Example 248, (S)-(2,7-Dimethyl-3-(5-(trifluoromethyl)pyridin-3-yl)-2,4,5,7-tetrahydro-6H-pyrazolo[3,4-c]pyridin-6-yl)(quinoxalin-6-yl)methanone] | 2230
Cn1nc2c(c1-c1ccccc1)CCN(C(=O)c1cccc3nccnc13)C2 [Example 97, (2-Methyl-3-phenyl-2,4,5,7-tetrahydro-6H-pyrazolo[3,4-c]pyridin-6-yl)(quinoxalin-5-yl)methanone] | 4260
Cn1nc2c(c1-c1ccccc1)CCN(C(=O)c1cccc3cncn13)C2 [Example 79, Imidazo[1,5-a]pyridin-5-yl(2-methyl-3-phenyl-2,4,5,7-tetrahydro-6H-pyrazolo[3,4-c]pyridin-6-yl)methanone] | 1190
C[C@H]1c2nn(C)c(-c3cc(F)c(F)c(F)c3)c2CCN1C(=O)c1cc(-n2nccn2)ccc1F [Example 285, [(7S)-2,7-Dimethyl-3-(3,4,5-trifluorophenyl)-5,7-dihydro-4H-pyrazolo[3,4-c]pyridin-6-yl]-[2-fluoro-5-(triazol-2-yl)phenyl]methanone] | 18.6
C[C@H]1c2nn(C)c(-c3cc(F)c(F)c(F)c3)c2CCN1C(=O)c1ccc2ncccc2n1 [Example 244, (S)-(2,7-Dimethyl-3-(3,4,5-trifluorophenyl)-2,4,5,7-tetrahydro-6H-pyrazolo[3,4-c]pyridin-6-yl)(1,5-naphthyridin-2-yl)methanone] | 14.1
C[C@H]1c2nn(C)c(-c3cc(F)c(F)c(F)c3)c2CCN1C(=O)c1cccn2cncc12 [Example 212, (S)-(2,7-Dimethyl-3-(3,4,5-trifluorophenyl)-2,4,5,7-tetrahydro-6H-pyrazolo[3,4-c]pyridin-6-yl)(imidazo[1,5-a]pyridin-8-yl)methanone] | 5.56
[2H]C([2H])([2H])n1nc2c(c1-c1cc(F)cc(F)c1)CCN(C(=O)c1ccc3ncccc3c1)C2C (stereo not drawn) [Example 157, (3-(3,5-Difluorophenyl)-7-methyl-2-(methyl-d3)-2,4,5,7-tetrahydro-6H-pyrazolo[3,4-c]pyridin-6-yl)(quinolin-6-yl)methanone] | 13.8
COc1ccc(C(=O)N2CCc3c(nn(C)c3-c3cc(C)cc(F)c3)[C@@H]2C)cc1 [Example 258, [(7S)-3-(3-Fluoro-5-methyl-phenyl)-2,7-dimethyl-5,7-dihydro-4H-pyrazolo[3,4-c]pyridin-6-yl]-(4-methoxyphenyl)methanone] | 68.5
